# From patent US6355799B1, “Substituted benzene compounds, process for their preparation, and herbicidal and defoliant compositions containing them” (ISK Americas Incorporated, priority 1997, dated 2002)
# Legend:
# Assay type in all cases: in vivo
# [1] = test system: redroot pigweed (Amaranthus retroflexus, AMARE); assay: Pre-emerge test, greenhouse herbicide activity screening; settings: pre-emerge, rated 14 days after application, 0 = no damage, 100 = complete death
# Summary of the method: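 Rating: 0–100 visual injury, 14 DAA. Application: acetone, 187 l/ha, 15–1000 g ai/ha, flat-fan track sprayer with nozzle 40–45 cm above soil or canopy. Post-emerge runs used 0.25% v/v surfactant on 2–3 leaf plants.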
# [2] = test system: barnyardgrass (Echinochloa crus-galli, ECHCG); assay: as above; settings: pre-emerge, rated 14 days after application, 0 = no damage, 100 = complete death
# Summary of the method: (§1)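 Applied at 15–1000 g ai/ha from acetone in 187 l/ha spray volume. Post-emergence applications included 0.25% v/v non-ionic surfactant and reached plants sown 8–21 days before. Pre-emergence applications were incorporated by surface watering. Efficacy or crop damage was rated on a 0–100 scale after 14 days.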
# [3] = test system: green foxtail (Setaria viridis, SETVI); assay: as above; settings: pre-emerge, rated 14 days after application, 0 = no damage, 100 = complete death
# Summary of the method: as §1
# [4] = test system: ivyleaf morningglory (Ipomoea hederacea, IPOHE); assay: as above; settings: pre-emerge, rated 14 days after application, 0 = no damage, 100 = complete death
# Summary of the method: as §1
# [5] = test system: johnsongrass (Sorghum halepense, SORHA); assay: as above; settings: pre-emerge, rated 14 days after application, 0 = no damage, 100 = complete death
# Summary of the method: as §1
# [6] = test system: lambsquarters (Chenopodium album, CHEAL); assay: as above; settings: pre-emerge, rated 14 days after application, 0 = no damage, 100 = complete death
# Summary of the method: as §1
# [7] = test system: large crabgrass (Digitaria sanguinalis, DIGSA); assay: as above; settings: pre-emerge, rated 14 days after application, 0 = no damage, 100 = complete death
# Summary of the method: as §1
# [8] = test system: sicklepod (Cassia obtusifolia, CASOB); assay: as above; settings: pre-emerge, rated 14 days after application, 0 = no damage, 100 = complete death
# Summary of the method: as §1
# [9] = test system: velvetleaf (Abutilon theophrasti, ABUTH); assay: as above; settings: pre-emerge, rated 14 days after application, 0 = no damage, 100 = complete death
# Summary of the method: as §1
# [10] = test system: field corn (Zea mays L., var. Dekalb 535, CORN); assay: Pre-emerge test, crop safety; settings: pre-emerge, rated 14 days after application, 0 = no damage, 100 = complete death
# Summary of the method: (§2)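 Compounds in acetone were track-sprayed at 15-1000 g ai/ha (187 l/ha) on sandy loam pots: pre-emerge one day after seeding, post-emerge at 2-3 leaf stage with 0.25% v/v non-ionic surfactant. Phytotoxicity was rated 14 days later on a 0 (no damage) to 100 (complete death) scale.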
# [11] = test system: upland rice (Oryza sp., var. Tebonnet, RICE); assay: Pre-emerge test, crop safety; settings: pre-emerge, rated 14 days after application, 0 = no damage, 100 = complete death
# Summary of the method: as §2
# [12] = test system: barnyardgrass (Echinochloa crus-galli, ECHCG); assay: Post-emerge test, greenhouse herbicide activity screening; settings: phytotoxicity rating 0-100 (0 no damage, 100 complete death), 14 days after application
# Summary of the method: (§3)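 Plants grown in 10 cm pots of sandy loam mix received acetone-dissolved compounds through a moving flat-fan nozzle. Doses ranged from 15 to 1000 g ai/ha. Pre-emerge pots were seeded one day earlier, post-emerge pots 8–21 days earlier. Fourteen days on, each pot was graded 0–100 for damage.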
# [13] = test system: green foxtail (Setaria viridis, SETVI); assay: as above; settings: phytotoxicity rating 0-100 (0 no damage, 100 complete death), 14 days after application
# Summary of the method: as §3
# [14] = test system: ivyleaf morningglory (Ipomoea hederacea, IPOHE); assay: as above; settings: phytotoxicity rating 0-100 (0 no damage, 100 complete death), 14 days after application
# Summary of the method: as §3
# [15] = test system: johnsongrass (Sorghum halepense, SORHA); assay: as above; settings: phytotoxicity rating 0-100 (0 no damage, 100 complete death), 14 days after application
# Summary of the method: as §3
# [16] = test system: lambsquarters (Chenopodium album, CHEAL); assay: as above; settings: phytotoxicity rating 0-100 (0 no damage, 100 complete death), 14 days after application
# Summary of the method: as §3
# [17] = test system: large crabgrass (Digitaria sanguinalis, DIGSA); assay: as above; settings: phytotoxicity rating 0-100 (0 no damage, 100 complete death), 14 days after application
# Summary of the method: as §3
# [18] = test system: redroot pigweed (Amaranthus retroflexus, AMARE); assay: as above; settings: phytotoxicity rating 0-100 (0 no damage, 100 complete death), 14 days after application
# Summary of the method: as §3
# [19] = test system: sicklepod (Cassia obtusifolia, CASOB); assay: as above; settings: phytotoxicity rating 0-100 (0 no damage, 100 complete death), 14 days after application
# Summary of the method: as §3
# [20] = test system: velvetleaf (Abutilon theophrasti, ABUTH); assay: as above; settings: phytotoxicity rating 0-100 (0 no damage, 100 complete death), 14 days after application
# Summary of the method: as §3
# [21] = test system: field corn (Zea mays L., var. Dekalb 535, CORN); assay: Post-emerge test, crop safety; settings: phytotoxicity rating 0-100 (0 no damage, 100 complete death), 14 days after application
# Summary of the method: as §1
# [22] = test system: upland rice (Oryza sp., var. Tebonnet, RICE); assay: Post-emerge test, crop safety; settings: phytotoxicity rating 0-100 (0 no damage, 100 complete death), 14 days after application
# Summary of the method: as §1
structure (smiles),measurement,setting,value
CCOC(=O)C(C)Oc1c(Cl)cc(F)c(-n2c(=O)cc(C(F)(F)F)n(C)c2=O)c1N (centres unmarked) [Compound 1-60],"Pre-emerge Herbicidal Activity AMARE (phytotoxicity rating, scale 0-100)",[1]; 63 g ai/ha,100
same,"Pre-emerge Herbicidal Activity AMARE (phytotoxicity rating, scale 0-100)",[1]; 250 g ai/ha,100
same,"Pre-emerge Herbicidal Activity ECHCG (phytotoxicity rating, scale 0-100)",[2]; 63 g ai/ha,50
same,"Pre-emerge Herbicidal Activity ECHCG (phytotoxicity rating, scale 0-100)",[2]; 250 g ai/ha,95
same,"Pre-emerge Herbicidal Activity SETVI (phytotoxicity rating, scale 0-100)",[3]; 63 g ai/ha,95
same,"Pre-emerge Herbicidal Activity SETVI (phytotoxicity rating, scale 0-100)",[3]; 250 g ai/ha,100
same,"Pre-emerge Herbicidal Activity IPOHE (phytotoxicity rating, scale 0-100)",[4]; 63 g ai/ha,90
same,"Pre-emerge Herbicidal Activity IPOHE (phytotoxicity rating, scale 0-100)",[4]; 250 g ai/ha,100
same,"Pre-emerge Herbicidal Activity SORHA (phytotoxicity rating, scale 0-100)",[5]; 63 g ai/ha,80
same,"Pre-emerge Herbicidal Activity SORHA (phytotoxicity rating, scale 0-100)",[5]; 250 g ai/ha,100
same,"Pre-emerge Herbicidal Activity CHEAL (phytotoxicity rating, scale 0-100)",[6]; 63 g ai/ha,100
same,"Pre-emerge Herbicidal Activity CHEAL (phytotoxicity rating, scale 0-100)",[6]; 250 g ai/ha,100
same,"Pre-emerge Herbicidal Activity DIGSA (phytotoxicity rating, scale 0-100)",[7]; 63 g ai/ha,95
same,"Pre-emerge Herbicidal Activity DIGSA (phytotoxicity rating, scale 0-100)",[7]; 250 g ai/ha,100
same,"Pre-emerge Herbicidal Activity CASOB (phytotoxicity rating, scale 0-100)",[8]; 63 g ai/ha,70
same,"Pre-emerge Herbicidal Activity CASOB (phytotoxicity rating, scale 0-100)",[8]; 250 g ai/ha,100
same,"Pre-emerge Herbicidal Activity ABUTH (phytotoxicity rating, scale 0-100)",[9]; 63 g ai/ha,100
same,"Pre-emerge Herbicidal Activity ABUTH (phytotoxicity rating, scale 0-100)",[9]; 250 g ai/ha,100
same,"Pre-emerge crop damage CORN (phytotoxicity rating, scale 0-100)",[10]; 63 g ai/ha,50
same,"Pre-emerge crop damage CORN (phytotoxicity rating, scale 0-100)",[10]; 250 g ai/ha,95
same,"Pre-emerge crop damage RICE (phytotoxicity rating, scale 0-100)",[11]; 63 g ai/ha,40
same,"Pre-emerge crop damage RICE (phytotoxicity rating, scale 0-100)",[11]; 250 g ai/ha,95
same,Post-emerge Herbicidal Activity ECHCG,[12]; 63 g ai/ha,0
same,Post-emerge Herbicidal Activity ECHCG,[12]; 250 g ai/ha,20
same,Post-emerge Herbicidal Activity SETVI,[13]; 63 g ai/ha,0
same,Post-emerge Herbicidal Activity SETVI,[13]; 250 g ai/ha,10
same,Post-emerge Herbicidal Activity IPOHE,[14]; 63 g ai/ha,90
same,Post-emerge Herbicidal Activity IPOHE,[14]; 250 g ai/ha,100
same,Post-emerge Herbicidal Activity SORHA,[15]; 63 g ai/ha,0
same,Post-emerge Herbicidal Activity SORHA,[15]; 250 g ai/ha,20
same,Post-emerge Herbicidal Activity CHEAL,[16]; 63 g ai/ha,99
same,Post-emerge Herbicidal Activity CHEAL,[16]; 250 g ai/ha,100
same,Post-emerge Herbicidal Activity DIGSA,[17]; 63 g ai/ha,0
same,Post-emerge Herbicidal Activity DIGSA,[17]; 250 g ai/ha,50
same,Post-emerge Herbicidal Activity AMARE,[18]; 63 g ai/ha,90
same,Post-emerge Herbicidal Activity AMARE,[18]; 250 g ai/ha,100
same,Post-emerge Herbicidal Activity CASOB,[19]; 63 g ai/ha,50
same,Post-emerge Herbicidal Activity CASOB,[19]; 250 g ai/ha,90
same,Post-emerge Herbicidal Activity ABUTH,[20]; 63 g ai/ha,100
same,Post-emerge Herbicidal Activity ABUTH,[20]; 250 g ai/ha,100
same,Post-emerge Herbicidal Activity CORN (crop damage),[21]; 63 g ai/ha,0
same,Post-emerge Herbicidal Activity CORN (crop damage),[21]; 250 g ai/ha,50
same,Post-emerge Herbicidal Activity RICE (crop damage),[22]; 63 g ai/ha,10
same,Post-emerge Herbicidal Activity RICE (crop damage),[22]; 250 g ai/ha,40
